US7772255B2, “Method of treating tumors with azaxanthones” (Supratek Pharma, Inc., priority 2005, dated 2010)

Key:
[1] = Chemical stability of Amlexanox sodium salt solution (HPLC); assay type: physicochemical; conditions: 20 mg Amlexanox sodium salt in 2 mL Tris buffer pH 7.2; 0.05 molar equivalent of the listed compound; 72 hours, ambient light, access to air; HPLC peak area
Method: 20 mg of crystalline Amlexanox sodium salt was dissolved in a clear glass test tube in 2 mL of Tris buffer, pH 7.2. For each of the stabilizing compounds listed in the Table below, 0.05 molar equivalent of the compound was added to the solution, mixed until dissolved, and left under ambient light, and with access to the air. Concentration of Amlexanox in the sample was determined by HPLC right after preparation, and after 72 hours. The chemical stability of Amlexanox was evaluated by comparison of area under the peak of amlexanox from the two analyses.

CSML100 cells = experiment: S100A4-positive lung metastasis tumor model, alone or in combinations (Example 25); assay type: in vivo, mouse; conditions: CSML100 i.v. in A/J mice, mean±SEM
Method: Amlexanox solution for injections was prepared according to the Example 4. […] The animals were then divided randomly into 9 groups (n=9 except for control group): 1) intact control (n=13, saline); 2) Amlexanox (i.v. 100 mg/kg); 3) Amlexanox ([…]. 3 mg/kg); 5) Amlexanox ([…]. […] 10 mg/kg). […] The treatments were started on the day following the tumor cell implantation and continued for 10 consecutive days. […] The animal body weight was recorded as an index of treatment toxicity during the experiment. […] The data are expressed as mean±SEM for the number of metastatic sites on the lung surface.

B16F10/DX cells = experiment: B16 experimental metastasis model (Example 26); assay type: in vivo, mouse; conditions: B16F10/DX i.v. in C57BL/6 mice; TPT 2.0 mg/kg i.v. on day 1, 4, and 7; mean±SEM
Method: Amlexanox solution for injections was prepared according to the Example 4. B16F10/DX cell (2.0×10^5 cells per animal) were inoculated intravenously in female C57BL//6 mice (6-7 weeks old) and animals were then divided randomly into 4 groups (n=9 except for control group): 1) intact control (n=12, saline); 2) Amlexanox (100 mg/kg, daily p.o. administration); 3) TPT (2.0 mg/kg i.v. administration on day 1, 4, and 7); 5) Amlexanox (daily p.o. 100 mg/kg)+TPT (i.v. 2.0 mg/kg on day 1, 4, and 7). Intact control received oral administration with 10 ml/kg (volume/body weight) of saline, while Amlexanox was administrated orally and daily with a dose of 100 mg/kg in a volume of 10 ml/kg. The treatments were started from the day following the tumor cell implantation until the end of the protocol. However, TPT was administrated intravenously only on day 1, 4, and 7 after tumor implantation. The animal body weight was recorded as an index of treatment toxicity during the experiment.
The data in Table show metastasis formation in the lung in the mice implanted with B16F10/DX cells. The data are expressed as mean±SEM for the number of metastatic sites on the lung surface.

Row | SMILES | Retained Amlexnox [1] | also measured
1 | Cn1c(=O)c2c(ncn2C)n(C)c1=O [Caffeine] | 96.8% | –
2 | COc1cccc2c1C(=O)c1c(O)c3c(c(O)c1C2=O)C[C@@](O)(C(=O)CO)C[C@@H]3O[C@H]1C[C@H](N)[C@H](O)[C@H](C)O1 [Dox, doxorubicin] | – | Lung Metastasis Number per Animal (CSML100 cells; Dox i.v. 3 mg/kg on day 1, 4, 7): 15.6 ± 2.66
3 | CCCOC(=O)c1cc(O)c(O)c(O)c1 [Propyl galate] | 99.7% | –
4 | CC[C@@]1(O)C(=O)OCc2c1cc1n(c2=O)Cc2cc3c(CN(C)C)c(O)ccc3nc2-1 [TPT, topotecan] | – | Lung Metastasis Number per Animal (CSML100 cells; TPT i.v. 3 mg/kg on day 1, 4, 7): 6.20 ± 1.32; Lung Metastasis Number per Animal (B16F10/DX cells): 88.0 ± 8.79

Now from value to compound, other results behind:

Row | Retained Amlexnox [1] | SMILES | also measured
5 | 99.5% | O=C1O[C@H]([C@@H](O)CO)C(O)=C1O [Ascorbic acid] | –
6 | 99.6% | Cc1occc(=O)c1O [Maltol] | –
7 | 93.1% | COC(=O)c1ccc(O)cc1 [Methyl 4-hydroxybenzoate] | –
